What was measured:
LRRC59 = biological target: T1, LRRC59 (Homo sapiens, UniProt Q96AG4); assay: TPP-CCR in living HL-60 cells; type: cell-based
T1 construct: endogenous in cells; host or cells: HL-60 (ATCC CCL-240)
T1 sequence (Q96AG4 1-307): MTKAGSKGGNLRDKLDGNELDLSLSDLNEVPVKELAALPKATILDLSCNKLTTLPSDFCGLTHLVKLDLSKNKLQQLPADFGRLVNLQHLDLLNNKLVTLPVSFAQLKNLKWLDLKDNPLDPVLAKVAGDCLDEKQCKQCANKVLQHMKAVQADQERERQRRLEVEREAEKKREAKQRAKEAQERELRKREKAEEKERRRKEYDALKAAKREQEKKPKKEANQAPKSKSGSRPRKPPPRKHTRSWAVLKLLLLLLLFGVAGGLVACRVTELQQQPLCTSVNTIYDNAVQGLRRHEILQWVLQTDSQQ

RARS = biological target: T2, RARS (Homo sapiens, UniProt P54136); assay: TPP-CCR in living HL-60 cells; type: cell-based
T2 construct: endogenous in cells; host or cells: HL-60 (ATCC CCL-240)
T2 sequence (P54136 1-660): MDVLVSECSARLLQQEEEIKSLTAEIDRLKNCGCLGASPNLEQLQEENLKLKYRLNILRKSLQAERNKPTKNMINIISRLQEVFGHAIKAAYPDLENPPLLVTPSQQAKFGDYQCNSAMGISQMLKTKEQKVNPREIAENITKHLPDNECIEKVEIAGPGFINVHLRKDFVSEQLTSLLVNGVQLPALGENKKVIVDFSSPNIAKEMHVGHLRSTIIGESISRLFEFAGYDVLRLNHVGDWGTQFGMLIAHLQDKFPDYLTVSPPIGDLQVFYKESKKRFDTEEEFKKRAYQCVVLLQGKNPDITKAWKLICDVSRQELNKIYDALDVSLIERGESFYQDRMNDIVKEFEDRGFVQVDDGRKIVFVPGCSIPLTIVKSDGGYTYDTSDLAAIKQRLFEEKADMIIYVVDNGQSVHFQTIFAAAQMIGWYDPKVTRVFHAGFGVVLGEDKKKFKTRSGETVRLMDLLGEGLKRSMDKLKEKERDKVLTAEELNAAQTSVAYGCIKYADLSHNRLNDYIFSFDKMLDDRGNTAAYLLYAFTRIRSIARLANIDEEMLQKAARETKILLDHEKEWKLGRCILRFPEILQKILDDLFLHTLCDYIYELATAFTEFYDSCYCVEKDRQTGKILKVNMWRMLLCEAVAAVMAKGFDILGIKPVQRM

[1] = living HL-60 cells, […] °C, TMT-MS

For `Cc1cnc(Nc2ccc(F)cc2Cl)nc1-c1c[nH]c(C(=O)N[C@H](CO)c2cccc(Cl)c2)c1` [ERK 11e], the Hill slope (LRRC59; TPP-CCR, living cells, LRRC59) was 0.59, the “Hill slope (LRRC59)” value (LRRC59; [1]) was 0.59 and the EC50 (LRRC59; living HL-60 cells, […] °C, TMT-MS, read-out: pEC50 (LRRC59) (converted)) was 1480 nM. For the same compound, the Hill slope (RARS; TPP-CCR, living cells, RARS) was 0.38, the EC50 (RARS; [1]) was 83.2 nM and the “Hill slope (RARS)” value (RARS; [1]) was 0.38.
